Measured values reported in US12162888B2, “Carboxamides as ubiquitin-specific protease inhibitors” (Valo Early Discovery, Inc., priority 2018, dated 2024).
Read-outs that look alike come from different tables or passages of the source.

Biological target: T1, USP28 (His-tagged USP28-FL-mammalian) (Homo sapiens, UniProt Q96RU2)
T1 construct: Expression of USP28 (1-1077)-TEV-6*His (pTT5 vector) was carried out in Expi293f cells; made in house; host or cells: Expi293F cells (pTT5 vector)
T1 sequence (Q96RU2 1-1077): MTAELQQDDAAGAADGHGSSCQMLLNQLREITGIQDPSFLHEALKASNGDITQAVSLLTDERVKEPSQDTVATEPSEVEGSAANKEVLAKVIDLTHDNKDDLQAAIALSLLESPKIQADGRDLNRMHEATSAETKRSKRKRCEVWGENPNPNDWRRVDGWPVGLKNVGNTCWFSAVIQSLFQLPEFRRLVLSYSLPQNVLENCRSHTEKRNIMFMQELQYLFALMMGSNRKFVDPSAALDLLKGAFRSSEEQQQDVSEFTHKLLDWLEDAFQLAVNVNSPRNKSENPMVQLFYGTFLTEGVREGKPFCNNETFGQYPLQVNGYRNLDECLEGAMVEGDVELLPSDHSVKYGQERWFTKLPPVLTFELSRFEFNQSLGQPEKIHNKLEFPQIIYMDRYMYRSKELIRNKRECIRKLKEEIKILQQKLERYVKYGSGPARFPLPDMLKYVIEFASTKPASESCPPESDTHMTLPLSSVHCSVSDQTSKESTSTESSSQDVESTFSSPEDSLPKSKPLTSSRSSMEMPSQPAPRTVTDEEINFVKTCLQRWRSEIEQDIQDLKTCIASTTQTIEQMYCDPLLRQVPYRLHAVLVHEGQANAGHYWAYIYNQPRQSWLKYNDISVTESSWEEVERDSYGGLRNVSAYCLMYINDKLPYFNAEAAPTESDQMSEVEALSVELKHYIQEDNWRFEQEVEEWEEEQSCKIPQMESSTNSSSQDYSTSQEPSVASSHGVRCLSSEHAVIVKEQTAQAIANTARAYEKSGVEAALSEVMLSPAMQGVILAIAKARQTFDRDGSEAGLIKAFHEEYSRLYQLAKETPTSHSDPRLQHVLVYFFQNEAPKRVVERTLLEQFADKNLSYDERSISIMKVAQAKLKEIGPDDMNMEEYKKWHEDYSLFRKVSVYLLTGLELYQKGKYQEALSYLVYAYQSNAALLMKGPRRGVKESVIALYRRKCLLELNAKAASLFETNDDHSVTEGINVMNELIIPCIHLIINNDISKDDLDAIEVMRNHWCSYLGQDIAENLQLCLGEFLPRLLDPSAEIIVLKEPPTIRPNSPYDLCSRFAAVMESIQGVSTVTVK
Assay: Ubiquitin-Rhodamine 110 Assay for USP28 Activity, Example A-1(a)
Assay type: biochemical
Description: Example A-1(a): Biochemical Assay: Ubiquitin-Rhodamine 110 Assay for USP28 Activity
The assay was performed in a final volume of 9 μL in assay buffer containing 20 mM Tris-HCl (pH 8.0, (1M Tris-HCl, pH 8.0 solution; Corning 46-031-CM)), 3 mM BME (2-Mercaptoethanol; Sigma 63689-25ML-F), 0.03% BGG (0.22 μM filtered, Sigma, G7516-25G), and 0.01% Triton X-100 (Sigma, T9284-10L). Nanoliter quantities of 10-point, 3-fold serial dilution in DMSO was pre-dispensed into 1536 assay plates (Corning, #3724BC) for a final test concentration of 25 μM to 1.3 nM, top to lowest dose, respectively. Enzyme USP28, construct His-tagged USP28-FL-mammalian, (protein expression and purification procedure described below). Concentration and incubation times were optimized for the maximal signal-to-background while maintaining initial velocity conditions at a fixed substrate concentration. The final concentration of the enzyme in the assay was […]. Final substrate (Ub-Rh110; Ubiquitin-Rhodamine 110, UbiQ-126) concentration was 25 nM with [Ub-Rh110]<<Km. 3 μL of 2× enzyme was added to assay plates (pre-stamped with compound) preincubated with […] for 30 minutes and then 3 μL of 2× Ub-Rh110 was added to assay plates. Plates were incubated for 45 minutes at room temperature before addition of 3 μL of stop solution (final concentration of 10 mM citric acid (Sigma, 251275-500G)). Fluorescence was read on the Envision (Excitation at 485 nm and Emission at 535 nm; Perkin Elmer) or on the PheraSTAR (Excitation at 485 nm and Emission at 535 nm; BMG Labtech).
Procedure for the Protein expression and purification for construct His-tagged USP28-FL-mammalian
Expression of USP28 (1-1077)-TEV-6*His (pTT5 vector) was carried out in Expi293f cells (sequence derived from uniprot ID: Q96RU2-1). Cells were re-suspended in lysis buffer B 50 mM Bicine, pH 8.0, 20 mM NaCl, 5% glycerol, 0.1% CHAPS, 5 mM β-ME, 1 mM PMSF, 1 ug/ml Leupeptin, 1 ug/ml Pepstatin) and lysed by sonication. Insoluble material was removed by centrifugation and the supernatant was loaded onto a Ni-NTA column (GE Healthcare) equilibrated with Ni Buffer A (50 mM Bicine, pH 8.0, 20 mM NaCl, 5% glycerol, 0.1% CHAPS, 5 mM R-ME.) and washed with Ni Buffer A+20 mM imidazole until A280 reached baseline. The protein was eluted with Ni Buffer B (50 mM Bicine, pH 8.0, 20 mM NaCl, 5% glycerol, 0.1% CHAPS, 5 mM β-ME, 300 mM imidazole.). The protein was further purified using a Superdex™ 200 10/300 GL column (GE Healthcare) equilibrated with 50 mM Bicine, pH 8.0, 20 mM NaCl, 5% glycerol, 0.1% CHAPS, 5 mM β-ME. The protein was concentrated to 2.5 mg ml-1, flash-frozen in liquid N2 and stored at −80° C.
For assay formats Example A-1(a), A-1(b), and A-2, data were reported as percent inhibition compared with control wells based on the following equation: % inh=1−((FLU−AveLow)/(AveHigh−AveLow)) where FLU=measured Fluorescence, AveLow=average Fluorescence of no enzyme control (n=16), and AveHighh=average Fluorescence of DMSO control (n=16). IC50 values were determined by curve fitting of the standard 4 parameter logistic fitting algorithm included in the Activity Base software package: IDBS XE Designer Model 205. Data is fitted using the Levenburg Marquardt algorithm.

[1] = Ubiquitin-Rhodamine 110 biochemical assay, read-out: USP28 A-1(a) IC50 range
[2] = Ubiquitin-Rhodamine 110 assay, read-out: USP28 A-1(a) IC50 range

Compound: 3-amino-N-[(6S)-2-[(3R,4S)-3-(methoxymethyl)-4-[(^2H3)methylamino]pyrrolidin-1-yl]-5,6,7,8-tetrahydroquinolin-6-yl]-6-methylthieno[2,3-b]pyridine-2-carboxamide [Example 487]
- IC50 [1]: 200 to 2000 nM

Compound: 3-amino-N-[(6S)-2-[(3S,4R)-3-(methoxymethyl)-4-[(^2H3)methylamino]pyrrolidin-1-yl]-5,6,7,8-tetrahydroquinolin-6-yl]-6-methylthieno[2,3-b]pyridine-2-carboxamide [Example 486]
- IC50 [1]: 50 to 200 nM

Compound: Cc1ccc2c(N)c(C(=O)N[C@H]3COc4cc(N5C[C@@H](N)[C@]6(C5)OCC[C@H]6C)ccc4C3)sc2n1 (single isomer, unassigned) [Example 612-4]
- IC50 (biochemical IC50 range, Ubiquitin-Rhodamine 110 assay, read-out: USP28 A-1(a)): 1 to 50 nM

Compound: Cc1ccc2c(N)c(C(=O)N[C@H]3CCc4nc(N5CC6CC(C5)N6)ccc4C3)sc2n1 [Example 23-10, 3-amino-N-[(6S)-2-{3,6-diazabicyclo[3.1.1]heptan-3-yl}-5,6,7,8-tetrahydroquinolin-6-yl]-6-methylthieno[2,3-b]pyridine-2-carboxamide]
- IC50 [2]: 50 to 200 nM

Compound: CO[C@@H]1CN(c2ccc3c(c2F)OC[C@H](NC(=O)c2sc4nc(C)ccc4c2N)C3)C[C@H]1N [Example 91, 3-amino-N-[(3R)-7-[(3R,4R)-3-amino-4-methoxypyrrolidin-1-yl]-8-fluoro-3,4-dihydro-2H-1-benzopyran-3-yl]-6-methylthieno[2,3-b]pyridine-2-carboxamide]
- IC50 [2]: 200 to 2000 nM

Compound: CO[C@]1(C)CN(c2ccc3c(c2)OC[C@H](NC(=O)c2sc4nc(C)ccc4c2N)C3)C[C@H]1N [Example 282, 3-amino-N-[(3R)-7-[(3R,4R)-4-amino-3-methoxy-3-methylpyrrolidin-1-yl]-3,4-dihydro-2H-1-benzopyran-3-yl]-6-methylthieno[2,3-b]pyridine-2-carboxamide]
- IC50 [2]: 200 to 2000 nM

Compound: Cc1ccc2c(N)c(C(=O)N[C@H]3COc4cc(N5CC[C@@]6(C5)OCC[C@H]6N)ccc4C3)sc2n1 [Example 409, 3-amino-N-[(3R)-7-[(4R,5S)-4-amino-1-oxa-7-azaspiro[4.4]nonan-7-yl]-3,4-dihydro-2H-1-benzopyran-3-yl]-6-methylthieno[2,3-b]pyridine-2-carboxamide]
- IC50 [2]: 1 to 50 nM

Compound: COCC(F)(F)[C@H]1CN(c2ccc3c(n2)CC[C@H](NC(=O)c2sc4nc(C)ccc4c2N)C3)C[C@@H]1N [Example 480, 3-amino-N-[(6S)-2-[(3R,4S)-3-amino-4-(1,1-difluoro-2-methoxyethyl)pyrrolidin-1-yl]-5,6,7,8-tetrahydroquinolin-6-yl]-6-methylthieno[2,3-b]pyridine-2-carboxamide]
- IC50 [1]: 50 to 200 nM

Compound: CO[C@@H](C)CO[C@H]1CN(c2ccc3c(n2)CC[C@H](NC(=O)c2sc4nc(C)ccc4c2N)C3)C[C@@H]1N [Example 481, 3-amino-N-[(6S)-2-[(3S,4S)-3-amino-4-[(2S)-2-methoxypropoxy]pyrrolidin-1-yl]-5,6,7,8-tetrahydroquinolin-6-yl]-6-methylthieno[2,3-b]pyridine-2-carboxamide]
- IC50 [1]: 50 to 200 nM

Compound: CO[C@H](C)CO[C@H]1CN(c2ccc3c(n2)CC[C@H](NC(=O)c2sc4nc(C)ccc4c2N)C3)C[C@@H]1N [Example 482, 3-amino-N-[(6S)-2-[(3S,4S)-3-amino-4-[(2R)-2-methoxypropoxy]pyrrolidin-1-yl]-5,6,7,8-tetrahydroquinolin-6-yl]-6-methylthieno[2,3-b]pyridine-2-carboxamide]
- IC50 [1]: 50 to 200 nM

Compound: COC[C@@H](C)O[C@@H]1CN(c2ccc3c(n2)CC[C@H](NC(=O)c2sc4nc(C)ccc4c2N)C3)C[C@H]1N [Example 483, 3-amino-N-[(6S)-2-[(3R,4R)-3-amino-4-{[(2R)-1-methoxypropan-2-yl]oxy}pyrrolidin-1-yl]-5,6,7,8-tetrahydroquinolin-6-yl]-6-methylthieno[2,3-b]pyridine-2-carboxamide]
- IC50 [1]: 50 to 200 nM

Compound: Cc1ccc2c(N)c(C(=O)N[C@H]3CCc4nc(N5C[C@@H](COC(F)(F)F)[C@@H](N)C5)ccc4C3)sc2n1 [Example 484, 3-amino-N-[(6S)-2-[(3R,4R)-3-amino-4-[(trifluoromethoxy)methyl]pyrrolidin-1-yl]-5,6,7,8-tetrahydroquinolin-6-yl]-6-methylthieno[2,3-b]pyridine-2-carboxamide]
- IC50 [1]: 200 to 2000 nM

Compound: Cc1ccc2c(N)c(C(=O)N[C@H]3CCc4nc(N5C[C@H](COC(F)(F)F)[C@H](N)C5)ccc4C3)sc2n1 [Example 485, 3-amino-N-[(6S)-2-[(3S,4S)-3-amino-4-[(trifluoromethoxy)methyl]pyrrolidin-1-yl]-5,6,7,8-tetrahydroquinolin-6-yl]-6-methylthieno[2,3-b]pyridine-2-carboxamide]
- IC50 [1]: 50 to 200 nM

Compound: CN[C@H]1CN(c2ccc3c(n2)CC[C@H](NC(=O)c2sc4nc(C)ccc4c2N)C3)C[C@H]1COC [Example 488, 3-amino-N-[(6S)-2-[(3R,4R)-3-(methoxymethyl)-4-(methylamino)pyrrolidin-1-yl]-5,6,7,8-tetrahydroquinolin-6-yl]-6-methylthieno[2,3-b]pyridine-2-carboxamide]
- IC50 [1]: 50 to 200 nM

Compound: CN[C@@H]1CN(c2ccc3c(n2)CC[C@H](NC(=O)c2sc4nc(C)ccc4c2N)C3)C[C@@H]1COC [Example 489, 3-amino-N-[(6S)-2-[(3S,4S)-3-(methoxymethyl)-4-(methylamino)pyrrolidin-1-yl]-5,6,7,8-tetrahydroquinolin-6-yl]-6-methylthieno[2,3-b]pyridine-2-carboxamide]
- IC50 [1]: 50 to 200 nM

Compound: CN[C@H]1CN(c2ccc3c(n2)CC[C@H](NC(=O)c2sc4nc(C)cnc4c2N)C3)C[C@@H]1OC [Example 490, 7-amino-N-[(6S)-2-[(3S,4S)-3-methoxy-4-(methylamino)pyrrolidin-1-yl]-5,6,7,8-tetrahydroquinolin-6-yl]-3-methylthieno[2,3-b]pyrazine-6-carboxamide]
- IC50 [1]: 50 to 200 nM
